According to US5688943A, “Benzodiazepine derivatives useful as CCK-receptor antagonists” (Yamanouchi Pharmaceutical Co., Ltd., priority 1992, dated 1997):

Key:
CCK-B receptors = biological target: T1, CCK-B receptors (Rattus norvegicus, UniProt P30553); assay: Measurement of binding affinity for CCK-B receptors ([125I]BH-CCK-8, rat brain membranes); design: species or system SD rats; conditions: for IC50: rat brain membranes, [125I]BH-CCK-8, 25° C., 120 minutes, pH 6.5, read-out: Receptor binding affinity IC50, CCK-B; for A/B Ratio: ratio IC50 (CCK-A)/IC50 (CCK-B)
T1 construct: the whole brain was immediately excised from each of the rats and homogenized; from tissue; host or cells: SD rat whole brain membranes
T1 sequence (P30553 whole entry): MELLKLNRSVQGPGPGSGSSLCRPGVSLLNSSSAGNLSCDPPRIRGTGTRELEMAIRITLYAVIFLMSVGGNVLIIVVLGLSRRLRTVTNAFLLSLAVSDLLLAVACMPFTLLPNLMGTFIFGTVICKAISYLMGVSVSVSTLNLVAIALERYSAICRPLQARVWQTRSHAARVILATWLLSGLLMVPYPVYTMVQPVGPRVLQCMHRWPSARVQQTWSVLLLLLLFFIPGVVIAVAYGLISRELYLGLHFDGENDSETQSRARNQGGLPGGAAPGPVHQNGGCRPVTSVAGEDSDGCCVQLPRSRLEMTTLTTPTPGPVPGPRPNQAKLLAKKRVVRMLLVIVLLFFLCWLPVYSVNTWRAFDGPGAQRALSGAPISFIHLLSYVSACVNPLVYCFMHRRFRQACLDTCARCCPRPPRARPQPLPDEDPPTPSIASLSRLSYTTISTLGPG
Protocol: Measurement of binding affinity for CCK-B receptors
About 100 SD rats were decapitated without anaesthesia, the whole brain was immediately excised from each of the rats and homogenized in 10-fold volume of 0.32M aqueous solution of sucrose by the use of a Teflon-coated homogenizer, the homogenate thus obtained was centrifuged for ten minutes at 900 g by the use of a cooled centrifuge, and the supernatant was further centrifuged for 15 minutes at 11500 g. The precipitate thus obtained was dispersed in 50 mM Tris-HCl buffer (pH 7.4) containing 0.08% Triton X-100, this suspension was allowed to stand for 30 minutes and again centrifuged for 15 minutes at 11500 g, the precipitate thus obtained was washed twice with 5 mM Tris-HCl buffer and twice with 50 mM Tris-HCl buffer in that order with centrifugal separation, the washed precipitate was suspended in 50 mM Tris-HCl buffer, and the suspension thus obtained was stored at -80° C. until the membrane preparation was required.
The membrane preparations were warmed to room temperature, diluted with 10 mM HEPES buffer (containing 130 mM NaCl, 5 mM MgCl2, 1 mM EGTA and 0.25 mg/ml bacitracin; pH 6.5) and incubated at 25° C. for 120 minutes in the presence of [^125 I]BH-CCK-8 and the test compound, then separated by suction filtration. Non-specific binding was determined in the presence of 1 μM CCK-8. The amount of labelled ligand bound to the receptor was measured by the use of a γ-counter; IC50 values were determined, being that concentration of test compound required to inhibit specific binding by 50%.
(§1) A high affinity for the CCK-A receptor in a gastrin/CCK-B antagonist is thought to be undesirable as it may lead to side-effects such as cholestasis and gall stone formation during therapy. Therefore it is preferable for the therapeutic agent to be selective for the CCK-B receptor. This selectivity is expressed by the ratio IC50 (CCK-A)/IC50 (CCK-B); the higher the value of this ratio the better is the selectivity.

CCK-A receptors = biological target: T2, CCK-A receptors (Rattus norvegicus, UniProt P30551); assay: Measurement of binding affinity for CCK-A receptors ([3H]L-364,718, rat pancreas membranes); design: species or system SD rat; conditions: [3H]L-364,718, 37° C., 30 minutes, read-out: Receptor binding affinity IC50, CCK-A
T2 construct: The pancreas of an SD rat was homogenized; from tissue; host or cells: SD rat pancreas membranes
T2 sequence (P30551 1-444): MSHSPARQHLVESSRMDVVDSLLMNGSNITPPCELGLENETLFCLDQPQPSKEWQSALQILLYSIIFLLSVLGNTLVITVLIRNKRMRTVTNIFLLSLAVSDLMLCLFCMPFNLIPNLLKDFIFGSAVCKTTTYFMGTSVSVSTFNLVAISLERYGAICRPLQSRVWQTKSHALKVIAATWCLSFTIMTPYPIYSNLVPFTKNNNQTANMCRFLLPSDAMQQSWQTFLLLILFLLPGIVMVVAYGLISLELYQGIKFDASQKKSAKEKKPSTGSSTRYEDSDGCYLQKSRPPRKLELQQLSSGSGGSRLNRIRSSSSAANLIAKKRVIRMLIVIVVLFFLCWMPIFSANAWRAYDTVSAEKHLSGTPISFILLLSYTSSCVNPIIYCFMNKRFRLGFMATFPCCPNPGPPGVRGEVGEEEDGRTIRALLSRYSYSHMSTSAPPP
Protocol: Measurement of binding affinity for CCK-A receptors
The pancreas of an SD rat was homogenized in a 20-fold volume of 50 mM Tris-HCl buffer (pH 7.7) by the use of a Polytrone-type homogenizer, the homogenate was twice centrifuged for 10 minutes at 50000 g by the use of an ultra-centrifuge, the precipitate thus obtained was suspended in a 40-fold volume of 50 mM Tris-HCl buffer (containing 0.2% BSA, 5 mM MgCl2, 0.1 mg/ml bacitracin and 5 mM DTT; pH 7.7), and the suspension was stored at -80° C. until the membrane preparations were required.
The membrane preparations were then warmed to room temperature, diluted 1:10 with the buffer and incubated at 37° C. for 30 minutes in the presence of [^3 H]L-364,718 and the test compound then separated by suction filtration. Non-specific binding was determined in the presence of 1 μM L-364,718. The amount of labelled ligand bound to the receptor was measured by the use of a liquid scintillation counter; IC50 values were determined, being that concentration of test compound required to inhibit specific binding by 50%
as §1

Compound | IC50 (CCK-B receptors) [nM] | A/B Ratio (CCK-B receptors) | IC50 (CCK-A receptors) [nM]
CC(=O)N1CCC[C@H]1C(=O)CN1C(=O)C(NC(=O)Nc2cccc(C)c2)N=C(c2ccccc2)c2ccccc21 (mixture of isomers) [Example 9, N-((3RS)-1-((2S)-1-Acetyl-2-pyrrolidylcarbonylmethyl)-2,3-dihydro-2-oxo-5-phenyl-1H-1,4-benzodiazepin-3-yl)-N'-(3-methylphenyl)urea] | 7.3 | > 1,400 | > 10000
O=C(Nc1cccc(C(=O)O)c1)N[C@@H]1N=C(c2ccccc2)c2ccccc2N(CC(O)C2CCCC2)C1=O (mixture of isomers) [Example 24, N-((3R)-1-((2RS)-2-Cyclopentyl-2-hydroxyethyl)-2,3-dihydro-2-oxo-5-phenyl-1H-1,4-benzodiazepin-3-yl)-N'-(3-carboxyphenyl)urea] | 0.97 | > 10,000 | > 10000
Cc1cccc(NC(=O)N[C@@H]2N=C(c3ccccc3)c3ccccc3N(C[C@H](O)C3CCCC3)C2=O)c1 (racemic) [Example 12, N-((3RS)-1-((2RS)-2-Cyclopentyl-2-hydroxyethyl)-2,3-dihydro-2-oxo-5-phenyl-1H-1,4-benzodiazepin-3-yl)-N'-(3-methylphenyl)urea] | 1.4 | > 7,100 | > 10000
Cc1cccc(NC(=O)N[C@@H]2N=C(c3ccccc3)c3ccccc3N(C[C@@H](O)C3CCCC3)C2=O)c1 (racemic) [Example 13, N-((3RS)-1-((2SR)-2-Cyclopentyl-2-hydroxyethyl)-2,3-dihydro-2-oxo-5-phenyl-1H-1,4-benzodiazepin-3-yl)-N'-(3-methylphenyl)urea] | 0.11 | > 91,000 | > 10000
Cc1cccc(NC(=O)NC2N=C(c3ccccn3)c3ccccc3N(CC(=O)C3CCCC3)C2=O)c1 (racemic) [Example 14, N-((3RS)-1-Cyclopentylcarbonylmethyl-2,3-dihydro-2-oxo-5-(2-pyridyl)-1H-1,4-benzodiazepin-3-yl)-N'-(3-methylphenyl)urea] | – | 22,000 | –
O=C(Nc1cccc(C(=O)O)c1)NC1N=C(c2ccccn2)c2ccccc2N(CC(=O)C2CCCC2)C1=O (racemic) [Example 22, N-((3RS)-1-Cyclopentylcarbonylmethyl-2,3-dihydro-2-oxo-5-(2-pyridyl)-1H-1,4-benzodiazepin-3-yl)-N'-(3-carboxyphenyl)urea] | 3.5 | > 2,900 | > 10000
O=C(O)Cc1cccc(NC(=O)NC2N=C(c3ccccc3)c3ccccc3N(CC(=O)C3CCCC3)C2=O)c1 (racemic) [Example 31, N-((3RS)-1-Cyclopentylcarbonylmethyl-2,3-dihydro-2-oxo-5-phenyl-1H-1,4-benzodiazepin-3-yl)-N'-(3-carboxymethylphenyl)urea] | 0.53 | 6,400 | 3400
Cc1cccc(NC(=O)NC2N=C(c3ccccc3)c3ccccc3N(CC(=O)CC3CCCCC3)C2=O)c1 (racemic) [Example 32, N-((3RS)-1-Cyclohexylmethylcarbonylmethyl-2,3-dihydro-2-oxo-5-phenyl-1H-1,4-benzodiazepin-3-yl)-N'-(3-methylphenyl)urea] | – | 1,700 | 480
Cc1cccc(NC(=O)NC2N=C(c3ccccc3)c3ccccc3N(CC(=O)C3(C)CCCCC3)C2=O)c1 (racemic) [Example 34, N-((3RS)-1-((1-Methylcyclohexyl)carbonylmethyl)-2,3-dihydro-2-oxo-5-phenyl-1H-1,4-benzodiazepin-3-yl)-N'-(3-methylphenyl)urea] | – | > 26,000 | > 10000
NC(=O)c1cccc(NC(=O)NC2N=C(c3ccccc3)c3ccccc3N(CC(=O)C3CCCC3)C2=O)c1 (racemic) [Example 35, N-((3RS)-1-Cyclopentylcarbonylmethyl-2,3-dihydro-2-oxo-5-phenyl-1H-1,4-benzodiazepin-3-yl)-N'-(3-carboxamidophenyl)urea] | 1.1 | 1,700 | 1900
COc1cccc(NC(=O)NC2N=C(c3ccccc3)c3ccccc3N(CC(=O)C3CCCC3)C2=O)c1 (racemic) [Example 42, N-((3RS)-1-Cyclopentylcarbonylmethyl-2,3-dihydro-2-oxo-5-phenyl-1H-1,4-benzodiazepin-3-yl)-N'-(3-methoxyphenyl)urea] | 0.07 | 5,100 | 360
O=C(Nc1cccc([N+](=O)[O-])c1)NC1N=C(c2ccccc2)c2ccccc2N(CC(=O)C2CCCC2)C1=O (racemic) [Example 44, N-((3RS)-1-Cyclopentylcarbonylmethyl-2,3-dihydro-2-oxo-5-phenyl-1H-1,4-benzodiazepin-3-yl)-N'-(3-nitrophenyl)urea] | 0.17 | 9,400 | 1600
CC(C)(C)C(=O)CN1C(=O)C(NC(=O)Nc2cccc([N+](=O)[O-])c2)N=C(c2ccccc2)c2ccccc21 (racemic) [Example 45, N-((3RS)-1-tert-Butylcarbonylmethyl-2,3-dihydro-2-oxo-5-phenyl-1H-1,4-benzodiazepin-3-yl)-N'-(3-nitrophenyl)urea] | 0.16 | – | –
Cc1cccc(NC(=O)N[C@@H]2N=C(c3ccccc3)c3ccccc3N(CC(=O)C3CCCC3)C2=O)c1 [Example 17, N-((3R)-1-Cyclopentylcarbonylmethyl-2,3-dihydro-2-oxo-5-phenyl-1H-1,4-benzodiazepin-3-yl)-N'-(3-methylphenyl)urea] | 0.07 | 36,000 | 2500
Cc1cccc(NC(=O)N[C@@H]2N=C(c3ccccc3)c3ccccc3N(C[C@H](O)C3CCCC3)C2=O)c1 [Example 19, N-((3R)-1-((2R)-2-Cyclopentyl-2-hydroxyethyl)-2,3-dihydro-2-oxo-5-phenyl-1H-1,4-benzodiazepin-3-yl)-N'-(3-methylphenyl)urea] | 0.92 | 1,200 | 1
O=C(Nc1cccc(C(=O)O)c1)N[C@@H]1N=C(c2ccccc2)c2ccccc2N(CC(=O)C2CCCC2)C1=O [Example 23, N-((3R)-1-Cyclopentylcarbonylmethyl-2,3-dihydro-2-oxo-5-phenyl-1H-1,4-benzodiazepin-3-yl)-N'-(3-carboxyphenyl)urea] | 0.08 | 11,000 | 870
O=C(Nc1cccc(C(=O)O)c1)N[C@@H]1N=C(c2ccccc2)c2ccccc2N(C[C@H](O)C2CCCC2)C1=O [Example 25, N-((3R)-1-((2R)-2-Cyclopentyl-2-hydroxyethyl)-2,3-dihydro-2-oxo-5-phenyl-1H-1,4-benzodiazepin-3-yl)-N'-(3-carboxyphenyl)urea] | 0.65 | > 15,000 | > 10000
